US20220267260A1, “COMPOUNDS CONTAINING A SULFONIC GROUP AS KAT INHIBITORS” (Epizyme, Inc., priority 2016, published 2022)
pIC50: −log10 of the molar value.

Columns and labels:
KAT5 = target: T1, KAT5 (Homo sapiens, UniProt Q92993); test: KAT5 enzyme inhibition assay (SAMDI mass spectrometry); format: biochemical; conditions: His-TEV-FL KAT5-Flag enzyme construct
T1 construct: His-TEV tag (N, cleaved yes); made in house

KAT6A = target: T2, KAT6A (Homo sapiens, UniProt Q92794); test: KAT6A enzyme inhibition assay (SAMDI mass spectrometry); format: biochemical; conditions: His-TEV-KAT6A 501-784 enzyme construct
T2 construct: His-TEV tag (N, cleaved yes); made in house
T2 sequence (Q92794 with tags, fused parts or gaps): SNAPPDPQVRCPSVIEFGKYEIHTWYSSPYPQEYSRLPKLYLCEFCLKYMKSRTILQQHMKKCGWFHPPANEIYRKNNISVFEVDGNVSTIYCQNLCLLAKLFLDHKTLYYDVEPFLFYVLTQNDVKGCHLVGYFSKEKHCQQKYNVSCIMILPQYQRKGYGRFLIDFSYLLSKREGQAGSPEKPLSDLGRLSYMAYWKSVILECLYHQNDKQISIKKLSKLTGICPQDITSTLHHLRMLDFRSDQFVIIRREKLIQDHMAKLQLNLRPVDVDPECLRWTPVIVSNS

T1 sequence (Q92993 with tags, fused parts or gaps): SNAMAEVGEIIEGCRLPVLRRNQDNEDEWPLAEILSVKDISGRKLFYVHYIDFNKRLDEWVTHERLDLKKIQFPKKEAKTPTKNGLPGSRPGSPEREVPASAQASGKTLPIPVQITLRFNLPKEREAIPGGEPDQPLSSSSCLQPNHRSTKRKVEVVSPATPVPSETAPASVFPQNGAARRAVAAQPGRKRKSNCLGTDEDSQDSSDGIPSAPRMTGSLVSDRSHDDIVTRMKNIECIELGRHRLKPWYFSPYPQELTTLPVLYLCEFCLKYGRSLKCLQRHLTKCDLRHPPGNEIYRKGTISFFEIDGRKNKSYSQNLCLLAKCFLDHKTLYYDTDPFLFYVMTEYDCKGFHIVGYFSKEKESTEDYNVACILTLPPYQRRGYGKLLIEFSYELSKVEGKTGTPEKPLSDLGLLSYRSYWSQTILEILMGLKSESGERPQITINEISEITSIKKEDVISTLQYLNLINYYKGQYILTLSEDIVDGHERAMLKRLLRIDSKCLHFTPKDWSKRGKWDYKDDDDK

SMILES | pIC50 (KAT5) | pIC50 (KAT6A)
O=C(NNS(=O)(=O)c1ccccc1)c1c(F)ccc(-c2ccccn2)c1F [Compound I-132] | 4.00 to 4.30 | ≥ 5.00
CCS(=O)(=O)N1CCCC(CS(=O)(=O)NNC(=O)c2cc(-c3cccc(C)c3)cc(Cl)c2F)C1 (centres unmarked) [Compound I-511] | ≥ 5.00 | < 4.00
Cc1cc(-c2ccccc2)cc(C(=O)NNS(=O)(=O)CC2CCCN(C(=O)CCN(C)C(=O)OC(C)(C)C)C2)c1F (centres unmarked) [Compound I-379] | ≥ 5.00 | ≥ 5.00
COc1ccccc1S(=O)(=O)NNC(=O)c1ccccc1F [Compound I-174] | < 4.00 | < 4.00
Cc1cc(-c2ccccc2)cc(C(=O)NCCS(=O)(=O)Nc2ccccc2)c1F [Compound I-75] | 4.00 to 4.30 | 4.30 to 5.00
Cc1cc(-c2ccccc2)cc(C(=O)NNS(=O)(=O)Cc2cccc(F)c2)c1F [Compound I-83] | ≥ 5.00 | ≥ 5.00
CC(C)(C)OC(=O)N1CCCC(CS(=O)(=O)NNC(=O)c2cc(-c3cccc(F)c3)cc(Cl)c2F)C1 (centres unmarked) [Compound I-396] | ≥ 5.00 | ≥ 5.00
Cc1cc(-c2cccc(F)c2)cc(C(=O)NNS(=O)(=O)CC2CCCN(C(=O)C(C)(C)C)C2)c1F (centres unmarked) [Compound I-294] | ≥ 5.00 | ≥ 5.00
Cc1cc(-c2ccccc2)cc(C(=O)NCc2cc[nH]n2)c1F [Compound I-173] | < 4.00 | < 4.00
Cc1cc(-c2ccccc2)cc(C(=O)NNS(=O)(=O)c2cccc(C(=O)O)c2)c1F [Compound I-256] | 4.00 to 4.30 | ≥ 5.00
Cc1cc(-c2ccccc2)cc(C(=O)N2CC(S(=O)(=O)c3ccccc3)C2)c1F [Compound I-199] | < 4.00 | < 4.00
Cc1cc(-c2ccccc2)cc(C(=O)NNS(=O)(=O)C2CCN(C(=O)c3ccccc3)C2)c1F (centres unmarked) [Compound I-32] | 4.30 to 5.00 | ≥ 5.00
O=C(NNS(=O)(=O)c1ccccc1)c1c(F)cccc1F [Compound I-166] | < 4.00 | 4.30 to 5.00
O=C(NNS(=O)(=O)c1ccccc1)c1c(F)cccc1-c1ccccc1 [Compound I-354] | < 4.00 | < 4.00
CC(C)C(Cc1ccccc1)CS(=O)(=O)NNC(=O)c1ccccc1 (centres unmarked) [Compound I-265] | < 4.00 | < 4.00
Cc1cccc(-c2cccc(C(=O)NNS(=O)(=O)c3ccccc3)c2F)c1 [Compound I-229] | 4.30 to 5.00 | 4.30 to 5.00
Cc1cccc(-c2cc(Cl)c(F)c(C(=O)NNS(=O)(=O)CC3CCCNC3)c2)c1 (centres unmarked) [Compound I-514] | < 4.00 | < 4.00
CC(=O)N1CCCC(CS(=O)(=O)NNC(=O)c2cc(-c3cccc(C)c3)cc(Cl)c2F)C1 (centres unmarked) [Compound I-515] | ≥ 5.00 | < 4.00

SMILES | pIC50 (KAT5) | pIC50 (KAT6A)
COc1ccccc1-c1cc(C)c(F)c(C(=O)NNS(=O)(=O)c2ccccc2)c1 [Compound I-304] | 4.00 to 4.30 | ≥ 5.00
COc1ccc(CN2CCC(S(=O)(=O)NNC(=O)c3cc(-c4ccccc4)cc(C)c3F)C2)cc1 (centres unmarked) [Compound I-27] | 4.30 to 5.00 | 4.30 to 5.00
Cc1cc(-c2ccccc2)cc(C(=O)NNS(=O)(=O)c2ccccc2Cl)c1F [Compound I-263] | ≥ 5.00 | ≥ 5.00
Cn1nc(NNS(=O)(=O)c2ccccc2)c2cc(-c3ccccc3)ccc21 [Compound I-47] | < 4.00 | < 4.00
Cc1cc(-c2ccccc2)cc(C(=O)NNS(=O)(=O)C2CCN(Cc3ccc(Cl)cc3)C2)c1F (centres unmarked) [Compound I-24] | 4.30 to 5.00 | 4.30 to 5.00
Cc1cc(-c2ccccc2)cc(C(=O)NNCC(F)(F)F)c1F [Compound I-476] | < 4.00 | < 4.00
Cc1cccc(C(=O)NNS(=O)(=O)Cc2ccccc2)c1F [Compound I-39] | 4.30 to 5.00 | < 4.00
Cc1c(C(=O)NNS(=O)(=O)c2cccc(Cl)c2)cnn1-c1ccccc1 [Compound I-316] | < 4.00 | < 4.00
Cc1cc(C(C)(C)C)cc(C(=O)NNS(=O)(=O)c2ccccc2)c1O [Compound I-462] | < 4.00 | < 4.00
Cc1cc(-c2ccccc2)cc(C(=O)NNS(=O)(=O)C(C)C2CCCN(C(=O)OC(C)(C)C)C2)c1F (centres unmarked) [Compound I-313] | ≥ 5.00 | 4.30 to 5.00
CC(=O)N1CCOC(CS(=O)(=O)NNC(=O)c2cc(-c3cccc(F)c3)cc(C)c2F)C1 (centres unmarked) [Compound I-429] | ≥ 5.00 | ≥ 5.00
CCc1cc(-c2ccccc2)cc(C(=O)NNS(=O)(=O)c2ccccc2)c1F [Compound I-216] | ≥ 5.00 | ≥ 5.00
Cc1cc(-c2ccccc2)cc(C(=O)NNS(=O)(=O)CC2CCNCC2)c1F [Compound I-141] | 4.00 to 4.30 | < 4.00
O=C(NNS(=O)(=O)c1ccccc1)c1c(F)ccc(-c2ccccc2)c1F [Compound I-233] | 4.30 to 5.00 | ≥ 5.00
Cc1cc(-c2ccccc2)cc(C(=O)Nc2nnc3n2CCCC3)c1F [Compound I-150] | < 4.00 | < 4.00
Cc1c(-c2ccccc2)ccc(F)c1C(=O)NNC(=O)c1ccccc1 [Compound I-171] | < 4.00 | < 4.00
Cc1cc(-c2ccccc2)cc(C(=O)NNS(=O)(=O)C2CCN(Cc3cccc(Cl)c3)C2)c1F (centres unmarked) [Compound I-30] | 4.30 to 5.00 | 4.30 to 5.00
O=C(NNS(=O)(=O)c1ccccc1)c1cc(-c2ccccc2)cc2cc[nH]c12 [Compound I-14] | 4.30 to 5.00 | 4.30 to 5.00

The next lines start with the values.

pIC50 (KAT5) | pIC50 (KAT6A) | SMILES
≥ 5.00 | 4.30 to 5.00 | Cc1cc(-c2ccccc2F)cc(C(=O)NNS(=O)(=O)CC2CCCCC2)c1F [Compound I-269]
< 4.00 | < 4.00 | CNC(=O)Cn1nc(C(=O)NNS(=O)(=O)C2CCCCC2)c(F)c1C [Compound I-489]
≥ 5.00 | 4.30 to 5.00 | Cc1cc(-c2cccc(F)c2F)cc(C(=O)NNS(=O)(=O)C2CCCCC2)c1F [Compound I-381]
4.00 to 4.30 | 4.30 to 5.00 | CCC(=O)N1CCC(S(=O)(=O)NNC(=O)c2cc(-c3ccccc3)cc(C)c2F)C1 (centres unmarked) [Compound I-104]
< 4.00 | < 4.00 | O=C(NNS(=O)(=O)C1CCOCC1)c1cc(CN2CCOCC2)cc(Cl)c1F [Compound I-448]
< 4.00 | < 4.00 | Cc1nn(C)c(C(=O)NNS(=O)(=O)C2CCCCC2)c1F [Compound I-469]
< 4.00 | < 4.00 | CN1CCN(Cc2cc(Cl)c(F)c(C(=O)NNS(=O)(=O)C3CCOCC3)c2)CC1 [Compound I-442]
< 4.00 | < 4.00 | Cn1cc(-c2ccc(F)c(Cl)c2)nc1C(=O)NNS(=O)(=O)CC1CCOCC1 [Compound I-478]
4.30 to 5.00 | 4.30 to 5.00 | COCCN1CCC(S(=O)(=O)NNC(=O)c2cc(-c3ccccc3)cc(C)c2F)CC1 [Compound I-93]
4.30 to 5.00 | 4.00 to 4.30 | COc1cc(Cl)c(F)c(C(=O)NNS(=O)(=O)CC2CCOCC2)c1 [Compound I-431]
4.00 to 4.30 | 4.30 to 5.00 | O=C(NNS(=O)(=O)C1CCOCC1)c1cc(CN2CCCCC2)cc(Cl)c1F [Compound I-454]
4.30 to 5.00 | 4.00 to 4.30 | Cc1cccc(-c2cc(C)c(F)c(C(=O)NNS(=O)(=O)C3CCCCC3)c2)c1 [Compound I-301]
4.30 to 5.00 | 4.30 to 5.00 | Cc1cc(-c2ccccc2)cc(C(=O)NNS(=O)(=O)C2CCC2)c1F [Compound I-7]
4.30 to 5.00 | 4.30 to 5.00 | COCCC(=O)N1CCC(S(=O)(=O)NNC(=O)c2cc(-c3ccccc3)cc(C)c2F)C1 (centres unmarked) [Compound I-106]
≥ 5.00 | ≥ 5.00 | Cc1cc(-c2ccccc2)cc(C(=O)NNS(=O)(=O)CC2CCOCC2)c1F [Compound I-267]
4.30 to 5.00 | 4.30 to 5.00 | O=C(NNS(=O)(=O)C1CCOCC1)c1cc(-c2cccc(CO)c2)cc(Cl)c1F [Compound I-482]

pIC50 (KAT5) | pIC50 (KAT6A) | SMILES
< 4.00 | < 4.00 | CNC(=O)CCNC(=O)c1cc(Cl)c(F)c(C(=O)NNS(=O)(=O)C2CCOCC2)c1 [Compound I-493]
4.30 to 5.00 | 4.30 to 5.00 | O=C(NNS(=O)(=O)C1CCCCC1)c1cc(-c2ccccc2)ccc1F [Compound I-360]
≥ 5.00 | ≥ 5.00 | O=C(NNS(=O)(=O)CC1CCCCC1)c1cc(CO)cc(Cl)c1F [Compound I-457]
< 4.00 | < 4.00 | COCCN1CC(S(=O)(=O)NNC(=O)c2cccc(C)c2F)C1 [Compound I-103]
4.00 to 4.30 | 4.00 to 4.30 | Cc1cc(-c2ccccc2)cc(C(=O)NNS(=O)(=O)C(C)C2CCNCC2)c1F (centres unmarked) [Compound I-382]
4.00 to 4.30 | < 4.00 | COc1cc(Cl)c(F)c(C(=O)NNS(=O)(=O)C2CCOCC2)c1 [Compound I-430]
< 4.00 | < 4.00 | CNC(=O)c1cccc(-c2cc(C)c(F)c(C(=O)NNS(=O)(=O)C3CCCCC3)c2)c1 [Compound I-458]
4.00 to 4.30 | 4.30 to 5.00 | COCCN1CC(S(=O)(=O)NNC(=O)c2cc(-c3ccccc3)cc(C)c2F)C1 [Compound I-43]
4.30 to 5.00 | 4.00 to 4.30 | COCCOc1cccc(-c2cc(C)c(F)c(C(=O)NNS(=O)(=O)C3CCCCC3)c2)c1 [Compound I-272]
≥ 5.00 | 4.30 to 5.00 | COCCOc1cccc(-c2cc(C)c(F)c(C(=O)NNS(=O)(=O)CC3CCCCC3)c2)c1 [Compound I-270]
4.00 to 4.30 | 4.00 to 4.30 | O=C(NNS(=O)(=O)C1CCCCC1)c1cc(-c2ccccc2)cc2[nH]cnc12 [Compound I-375]
< 4.00 | < 4.00 | Cc1nn(CC(=O)NCCO)c(C(=O)NNS(=O)(=O)C2CCCCC2)c1F [Compound I-504]
< 4.00 | < 4.00 | Cn1cnc2cc(-c3ccccc3)cc(C(=O)NNS(=O)(=O)C3CCCCC3)c21 [Compound I-441]
< 4.00 | 4.00 to 4.30 | Cc1c(-c2ccccc2)ccc(F)c1C(=O)NNS(=O)(=O)C1CCCCC1 [Compound I-117]
< 4.00 | < 4.00 | Cc1nn(CC(=O)NC2CCC2)c(C(=O)NNS(=O)(=O)C2CCCCC2)c1F [Compound I-501]
